Results published in the supplement of paper PMC10307832.

What follows are cell lines tested with C1CSC2=C(C(=O)N1)SC3=C2C=C(C=C3)O [kb NB 142-70] + C[C@@H](Oc1cc(-c2cnn(C3CCNCC3)c2)cnc1N)c1c(Cl)ccc(F)c1Cl [Crizotinib] (partner 1 µM) (assay: relative viability (nuclei count vs DMSO), 5 days (fraction); higher = more cells survive). Settings: first compound 1 µM.
Procedure, shortened: (§1)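 Relative viability is defined as nuclei in treated wells over nuclei in vehicle wells. Duplicate plates were run and medians reported. Lung cancer cell lines in 1536-well plates were dosed by pin tool one day after seeding, with one drug or with a fixed anchor-drug dose plus five library-drug doses (not always all listed) in √10 steps, and nuclei were counted after 5 days.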

Cell Line | relative viability
HOP-62 | 1.02
HCC-44 | 0.883
A549 | 0.861
LU99A | 0.506
BEN | 0.906
HARA | 0.817
HCC-78 | 0.372
NCI-H441 | 0.64
NCI-H1299 | 0.969
NCI-H1563 | 0.853

Same assay, conditions: first compound 3.162 µM

Cell Line | relative viability
NCI-H727 | 0.592
NCI-H1650 | 1.08
EBC-1 | 0.155
NCI-H1703 | 0.489
NCI-H1993 | 0.854
SW 1573 | 0.526
NCI-H838 | 0.877
LCLC-103H | 1.03
NCI-H520 | 0.507
NCI-H2126 | 0.983
EMC-BAC-2 | 0.625
NCI-H2085 | 0.663
Calu-6 | 0.384
HCC-366 | 0.463
NCI-H1666 | 0.676
NCI-H596 | 0.933
LK-2 | 0.204
NCI-H2087 | 0.868
SK-MES-1 | 0.72

Cell Line | relative viability
H3255 | 0.958
COR-L23 | 0.278
COR-L 105 | 0.925
IA-LM | 0.894
LOU-NH91 | 0.644
ChaGo-K-1 | 1.13
NCI-H2170 | 1.04
NCI-H2405 | 0.717
HOP-62 | 1.03
HCC-44 | 0.907
A549 | 0.213
LU99A | 0.397
BEN | 0.69
HARA | 0.922
HCC-78 | 0.353
NCI-H441 | 0.433
NCI-H1299 | 0.893
NCI-H1563 | 0.839

The cell lines below were run with C1CSC2=C(C(=O)N1)SC3=C2C=C(C=C3)O [kb NB 142-70] + C[C@]1(O)C[C@@H](c2nc(-c3ccc4ccc(-c5ccccc5)nc4c3)c3c(N)nccn32)C1 [Linsitinib] (partner 1 µM) in the same assay as above. Settings: first compound 0.1 µM.
Procedure, shortened: as §1

Cell Line | relative viability
NCI-H727 | 0.356
EBC-1 | 0.897
NCI-H1703 | 0.975
NCI-H1993 | 0.792
SW 1573 | 0.744
NCI-H838 | 0.993
LCLC-103H | 0.989
NCI-H520 | 0.874
NCI-H2126 | 0.702
EMC-BAC-2 | 0.805
NCI-H2085 | 0.807
Calu-6 | 0.93
HCC-366 | 0.658
NCI-H1666 | 0.858
NCI-H596 | 1.13
LK-2 | 0.751
NCI-H2087 | 1.05
SK-MES-1 | 1.07

Cell Line | relative viability
H3255 | 0.824
COR-L23 | 0.953
COR-L 105 | 1.17
IA-LM | 0.621
LOU-NH91 | 0.911
NCI-H2405 | 0.969
HOP-62 | 0.996
HCC-44 | 0.689
A549 | 0.551
LU99A | 0.519
BEN | 0.793
HARA | 1.05
HCC-78 | 0.491
NCI-H441 | 0.656
NCI-H1395 | 1.15
NCI-H1299 | 1.07
NCI-H1793 | 0.832
NCI-H1563 | 1.19

Same assay, conditions: first compound 1 µM

Cell Line | relative viability
NCI-H727 | 0.323
EBC-1 | 0.952
NCI-H1703 | 0.625
NCI-H1993 | 0.715
SW 1573 | 0.693
NCI-H838 | 1.08
LCLC-103H | 1.2
NCI-H520 | 0.972
NCI-H2126 | 0.729
EMC-BAC-2 | 0.798
NCI-H2085 | 0.515
Calu-6 | 0.889
HCC-366 | 0.462
NCI-H1666 | 0.831
NCI-H596 | 1.02
LK-2 | 0.384
NCI-H2087 | 0.956
SK-MES-1 | 1.15

Cell Line | relative viability
H3255 | 0.984
COR-L23 | 0.901
COR-L 105 | 1
IA-LM | 0.771
LOU-NH91 | 0.882
NCI-H2405 | 0.834
HOP-62 | 0.906
HCC-44 | 0.716
A549 | 0.524
LU99A | 0.518
BEN | 0.893
HARA | 0.975
HCC-78 | 0.569
NCI-H441 | 0.457
NCI-H1395 | 1.26
NCI-H1299 | 1.07
NCI-H1793 | 1.08
NCI-H1563 | 1.19

Same assay, conditions: first compound 3.162 µM

Cell Line | relative viability
NCI-H727 | 0.28
EBC-1 | 0.817
NCI-H1703 | 0.823
NCI-H1993 | 0.67
SW 1573 | 0.351
NCI-H838 | 0.98
LCLC-103H | 1.15
NCI-H520 | 0.641
NCI-H2126 | 0.681
EMC-BAC-2 | 0.747
NCI-H2085 | 0.599
Calu-6 | 0.683
HCC-366 | 0.214
NCI-H1666 | 0.483
NCI-H596 | 0.837
LK-2 | 0.245
NCI-H2087 | 0.915
SK-MES-1 | 0.722

Cell Line | relative viability
H3255 | 0.905
COR-L23 | 0.303
COR-L 105 | 0.94
IA-LM | 0.87
LOU-NH91 | 0.612
NCI-H2405 | 0.641
HOP-62 | 0.945
HCC-44 | 0.658
A549 | 0.499
LU99A | 0.341
BEN | 0.724
HARA | 0.631
HCC-78 | 0.467
NCI-H441 | 0.356
NCI-H1395 | 0.765
NCI-H1299 | 1.14
NCI-H1793 | 0.905
NCI-H1563 | 1.28
